Legend:
Conditions in all cases: Shake Flask, 1 hour contact (T1h vs T0), incubation 32 °C 24 hours; test concentration not given
[1] = tested on: Pseudomonas Aeruginosa (PA) CIP 82.113
Experimental: (§1) The antibacterial efficacy was tested following the below Shake Flask protocol:
(§2) • Microbial strains: Staphylococcus aureus (SA) CIP 4.83, Escherichia Coli (EC) CIP 53.126, Pseudomonas Aeruginosa (PA) CIP 82.113 • Culture media: TSA medium—Neutralizing medium (Dey Engley Broth)—Buffered Peptoned water (BPW-F)—Shake flask bottles—Physiological water • Incubator Shake Flask Protocol: ASTM E2149 Shake Flask Method • Inoculum counting: • For each strain, prepare an inoculum at 0.5 Mc Farland (McF). Dilute 1 ml of the inoculum with 9 ml of physiological water. Select 1 ml of the resulting dilution and dilute again with 9 ml of physiological water. Execute 5 dilution steps accordingly so that a 10^−5 dilution is obtained. • Recover 100 microliter of the 10^−5 dilution and inoculate 2 petri dishes. • Add 20 ml of TSA medium. • Incubate at 32+/−0.5° C. during 24 hours • Negative control: • Put 5 ml of SA, EC or PA inoculums into a shake flask. Add 45 ml of pure BPW-F solution. • Dilute twice in neutralizing medium: Recover 1 ml of the pure solution and add 9 ml of the neutralizing medium (=10^−1 and 10^−2 dilution). • Wait 5 minutes and put 100 microliter of the pure solution and the 10^−2 dilution into 2 petri dishes, add 20 ml of TSA medium (T0). • Do the same operation after 1 hour (T1h). • Incubate at 32+/−0:5° C. during 24 hours • Sample testing: • Prepare a solution at a specified concentration (see data tables for actual concentrations as 100% active—final volume 50 ml). For example, for a 50% (V/V), dilute 25 ml of product with 20 ml of BPW-F and 5 ml of the inoculums (SA, EC or PA) at 0.5 McF. • Dilute twice in neutralizing medium: Recover 1 ml of the pure solution and add 9 ml of the neutralizing medium (=10^−1 and 10^−2 dilution). • Wait 5 minutes and put 100 microliter of the pure solution and the 10^−2 dilution into 2 petri dishes, add 20 ml of TSA medium (T0). • Do the same operation after 1 hour (T1h). • Incubate at 32+/−0.5° C. during 24 hours • Calculation of log reduction: • The log reduction is calculated as log (T0/T1h)

[2] = tested on: Escherichia Coli (EC) CIP 53.126
Experimental: as §1, §2

[3] = tested on: Staphylococcus aureus (SA) CIP 4.83
Experimental: as §1, §2

Substance | log reduction, log (T0/T1h), Ps Aeroginosa [1] | log reduction, log (T0/T1h), E. coli [2] | log reduction, log (T0/T1h), St. Aureus [3]
symmetrically branched C12-14 alkyl dimethyl amine oxide | 3.29 | 2.6 | –
asymmetrically branched C12-14 alkyl dimethyl amine oxide | 3.98 | – | 4.06
linear C12-14 alkyl dimethyl amine oxide [reference compound] | 2.10 | 0.41 | 0.73
